System: male Fischer rats
Test: Days until circadian rhythm synchronized after 6-hour backward/forward phase change of light-and-dark cycle
Type: in vivo, rat
Details: for days required for synchronization, backward movement of the phase: 6 hours backward; for days required for synchronization, forward movement of the phase: 6 hours forward

With `CCCCC/C=C\C/C=C\C/C=C\C/C=C\CCCC(=O)OC(COC(=O)CCCCCCC)COC(=O)CCCCCCC` [8A8, 1,3-capryloyl-2-arachidonoyl-glycerol] as the compound, how does the “time (days) required for synchronization” value (overall conclusion on ingestion of 8A8 versus control feed) read?
The value was “shortened”.

What about the “days required for synchronization, backward movement of the phase” value (rats of 2 months age, 8A8-compounded feed (control feed group 3.7 days)) of the same compound?
Its value is 4.1 days.

And the “days required for synchronization, forward movement of the phase” value (rats of 2 months age, 8A8-compounded feed (control feed group 9.8 days))?
The value was 9.43 days.

And the “days required for synchronization, backward movement of the phase” value (rats of 18 months age, 8A8-compounded feed (control feed group 7.28 days))?
The value was 5.72 days.

What about the “days required for synchronization, forward movement of the phase” value (rats of 18 months age, 8A8-compounded feed (control feed group 5.63 days)) of the same compound?
Its value is 3.32 days.
